Experimental data taken from patent publication US20120196766A1, “Therapeutic Use of Farnesyltransferase Inhibitors and Methods of Monitoring the Efficacy Thereof” (priority 2004, published 2012).

Tested on: THP-1 cells
Test: cDNA microarray analysis of LPS-induced gene transcription in THP-1 cells
Format: cell-based, Human
Settings: for Fold-change (tipifarnib/LPS vs LPS) ABCB8 / Fold-change (tipifarnib/LPS vs LPS) B2M / Fold-change (tipifarnib/LPS vs LPS) C3AR1 / Fold-change (tipifarnib/LPS vs LPS) CCL2 / Fold-change (tipifarnib/LPS vs LPS) CCL3 / Fold-change (tipifarnib/LPS vs LPS) CCL4 / Fold-change (tipifarnib/LPS vs LPS) CCL8 / Fold-change (tipifarnib/LPS vs LPS) CCND1 / Fold-change (tipifarnib/LPS vs LPS) CXCL11 / Fold-change (tipifarnib/LPS vs LPS) GNPNAT1 / Fold-change (tipifarnib/LPS vs LPS) IER3 / Fold-change (tipifarnib/LPS vs LPS) IFI16 / Fold-change (tipifarnib/LPS vs LPS) IFIT1 / Fold-change (tipifarnib/LPS vs LPS) IFNB1 / Fold-change (tipifarnib/LPS vs LPS) IGFBP3 / Fold-change (tipifarnib/LPS vs LPS) IL1B / Fold-change (tipifarnib/LPS vs LPS) IL1RN / Fold-change (tipifarnib/LPS vs LPS) IL8 / Fold-change (tipifarnib/LPS vs LPS) KCNK17 / Fold-change (tipifarnib/LPS vs LPS) LAP3 / Fold-change (tipifarnib/LPS vs LPS) LGR7 / Fold-change (tipifarnib/LPS vs LPS) MMP9 / Fold-change (tipifarnib/LPS vs LPS) MX1 / Fold-change (tipifarnib/LPS vs LPS) MYD88 / Fold-change (tipifarnib/LPS vs LPS) NEXN / Fold-change (tipifarnib/LPS vs LPS) NFKB2 / Fold-change (tipifarnib/LPS vs LPS) PLAUR / Fold-change (tipifarnib/LPS vs LPS) PTX3 / Fold-change (tipifarnib/LPS vs LPS) S100A9 / Fold-change (tipifarnib/LPS vs LPS) STAT1 / Fold-change (tipifarnib/LPS vs LPS) TAP1 / Fold-change (tipifarnib/LPS vs LPS) TAP2 / Fold-change (tipifarnib/LPS vs LPS) TRIM22 / Fold-change (tipifarnib/LPS vs LPS) UBE2L6 / Fold-change (tipifarnib/LPS vs LPS) LY6E / Fold-change (tipifarnib/LPS vs LPS) TIMP3: LPS 100 ng/ml, tipifarnib 5 μM
Description: THP-1 cells were cultured in RPMI1640 medium, supplemented with 10% FBS/100 units/ml Penicillin/10 μg/ml Streptomycin at 37° C., under 5% CO2. […] For the untreated control group (no LPS, no compound) and LPS alone group, equivalent volumes of DMSO were added to the medium. Cells were cultured at 37° C. and pellets were collected at 0 hr, 1 hr, 3 hr, 6 hr, 12 hr & 24 hr. Cell pellets were stored at −80° C. if RNA isolation was not conducted immediately. For experiments to study cytokine secretion in culture supernatants, THP-1 cells were washed twice with PBS, resuspended at 3.4×10^5/ml and cultured in 96-well plates at 250 μL, per well at 37° C. […] Supernatants were collected at different time points as indicated in the figures and were kept at ≦−20° C. until analysis of cytokine production.
Total RNA was isolated using RNeasy mini kit from QIAGEN (Valencia, Calif.) according to the manufacturer's instructions. RNA samples were stored at −80° C.
Five μg of total RNA was linearly amplified to double-stranded cDNA using T7-based amplification. The cDNA was purified using the QIAquick 96 PCR purification kit (QIAGEN Valencia, Calif.), and used to generate amplified (a) RNA using AmpliScribe™ T7 High Yield Transcription Kit (Epicentre, Madison, Wis.). Ten μg of purified aRNA was reverse transcribed to cDNA using the SuperScript RTII kit (Invitrogen) and labeled by direct incorporation of Cy3-dCTP. The generated cDNA probe was used for hybridizing to cDNA microarrays.
Each clone was spotted in duplicate on the array.

Cn1cncc1C(N)(c1ccc(Cl)cc1)c1ccc2c(c1)c(-c1cccc(Cl)c1)cc(=O)n2C (single isomer, unassigned; (+)) [tipifarnib, (+)-6-[amino(4-chlorophenyl)(1-methyl-1H-imidazol-5-yl)methyl]-4-(3-chlorophenyl)-1-methyl-2(1H)-quinolinone]
Fold-change (tipifarnib/LPS vs LPS) ABCB8 (1 hr): 1.07 | Fold-change (tipifarnib/LPS vs LPS) B2M (1 hr): 1.15 | Fold-change (tipifarnib/LPS vs LPS) C3AR1 (1 hr): 1.00 | Fold-change (tipifarnib/LPS vs LPS) CCL2 (1 hr): −1.07 | Fold-change (tipifarnib/LPS vs LPS) CCL3 (1 hr): −1.07 | Fold-change (tipifarnib/LPS vs LPS) CCL4 (1 hr): 1.07 | Fold-change (tipifarnib/LPS vs LPS) CCL8 (1 hr): −1.07 | Fold-change (tipifarnib/LPS vs LPS) CCND1 (1 hr): 1.00 | Fold-change (tipifarnib/LPS vs LPS) CXCL11 (1 hr): 1.00 | Fold-change (tipifarnib/LPS vs LPS) GNPNAT1 (1 hr): 1.00 | Fold-change (tipifarnib/LPS vs LPS) IER3 (1 hr): 1.32 | Fold-change (tipifarnib/LPS vs LPS) IFI16 (1 hr): 1.07 | Fold-change (tipifarnib/LPS vs LPS) IFIT1 (1 hr): 1.00 | Fold-change (tipifarnib/LPS vs LPS) IFNB1 (1 hr): −1.23 | Fold-change (tipifarnib/LPS vs LPS) IGFBP3 (1 hr): 1.00 | Fold-change (tipifarnib/LPS vs LPS) IL1B (1 hr): 1.07 | Fold-change (tipifarnib/LPS vs LPS) IL1RN (1 hr): −1.15 | Fold-change (tipifarnib/LPS vs LPS) IL8 (1 hr): −1.07 | Fold-change (tipifarnib/LPS vs LPS) KCNK17 (1 hr): −1.07 | Fold-change (tipifarnib/LPS vs LPS) LAP3 (1 hr): −1.07 | Fold-change (tipifarnib/LPS vs LPS) LGR7 (1 hr): 1.23 | Fold-change (tipifarnib/LPS vs LPS) MMP9 (1 hr): −1.07 | Fold-change (tipifarnib/LPS vs LPS) MX1 (1 hr): 1.00 | Fold-change (tipifarnib/LPS vs LPS) MYD88 (1 hr): 1.07 | Fold-change (tipifarnib/LPS vs LPS) NEXN (1 hr): 1.00 | Fold-change (tipifarnib/LPS vs LPS) NFKB2 (1 hr): −1.07 | Fold-change (tipifarnib/LPS vs LPS) PLAUR (1 hr): 1.00 | Fold-change (tipifarnib/LPS vs LPS) PTX3 (1 hr): 1.15 | Fold-change (tipifarnib/LPS vs LPS) S100A9 (1 hr): 1.00 | Fold-change (tipifarnib/LPS vs LPS) STAT1 (1 hr): 1.23 | Fold-change (tipifarnib/LPS vs LPS) TAP1 (1 hr): −1.23 | Fold-change (tipifarnib/LPS vs LPS) TAP2 (1 hr): 1.07 | Fold-change (tipifarnib/LPS vs LPS) TRIM22 (1 hr): 1.00 | Fold-change (tipifarnib/LPS vs LPS) UBE2L6 (1 hr): 1.00 | Fold-change (tipifarnib/LPS vs LPS) ABCB8 (3 hr): 1.00 | Fold-change (tipifarnib/LPS vs LPS) B2M (3 hr): 1.00 | Fold-change (tipifarnib/LPS vs LPS) C3AR1 (3 hr): 1.07 | Fold-change (tipifarnib/LPS vs LPS) CCL2 (3 hr): −1.32 | Fold-change (tipifarnib/LPS vs LPS) CCL3 (3 hr): 1.00 | Fold-change (tipifarnib/LPS vs LPS) CCL8 (3 hr): 1.00 | Fold-change (tipifarnib/LPS vs LPS) CCND1 (3 hr): −1.07 | Fold-change (tipifarnib/LPS vs LPS) CXCL11 (3 hr): −1.07 | Fold-change (tipifarnib/LPS vs LPS) GNPNAT1 (3 hr): 1.00 | Fold-change (tipifarnib/LPS vs LPS) IFI16 (3 hr): 1.00 | Fold-change (tipifarnib/LPS vs LPS) IFIT1 (3 hr): 1.00 | Fold-change (tipifarnib/LPS vs LPS) IFNB1 (3 hr): −1.15 | Fold-change (tipifarnib/LPS vs LPS) IGFBP3 (3 hr): −1.07 | Fold-change (tipifarnib/LPS vs LPS) IL1B (3 hr): 1.32 | Fold-change (tipifarnib/LPS vs LPS) IL1RN (3 hr): −1.15 | Fold-change (tipifarnib/LPS vs LPS) IL8 (3 hr): −1.23 | Fold-change (tipifarnib/LPS vs LPS) KCNK17 (3 hr): −1.15 | Fold-change (tipifarnib/LPS vs LPS) LAP3 (3 hr): −1.07 | Fold-change (tipifarnib/LPS vs LPS) LGR7 (3 hr): −1.15 | Fold-change (tipifarnib/LPS vs LPS) LY6E (3 hr): −1.15 | Fold-change (tipifarnib/LPS vs LPS) MMP9 (3 hr): −1.07 | Fold-change (tipifarnib/LPS vs LPS) MX1 (3 hr): −1.07 | Fold-change (tipifarnib/LPS vs LPS) MYD88 (3 hr): −1.15 | Fold-change (tipifarnib/LPS vs LPS) NEXN (3 hr): 1.00 | Fold-change (tipifarnib/LPS vs LPS) NFKB2 (3 hr): 1.23 | Fold-change (tipifarnib/LPS vs LPS) PLAUR (3 hr): −1.23 | Fold-change (tipifarnib/LPS vs LPS) PTX3 (3 hr): −1.15 | Fold-change (tipifarnib/LPS vs LPS) S100A9 (3 hr): −1.15 | Fold-change (tipifarnib/LPS vs LPS) STAT1 (3 hr): −1.32 | Fold-change (tipifarnib/LPS vs LPS) TAP1 (3 hr): 1.15 | Fold-change (tipifarnib/LPS vs LPS) TAP2 (3 hr): −1.15 | Fold-change (tipifarnib/LPS vs LPS) TIMP3 (3 hr): −1.41 | Fold-change (tipifarnib/LPS vs LPS) TRIM22 (3 hr): 1.00 | Fold-change (tipifarnib/LPS vs LPS) UBE2L6 (3 hr): −1.07 | Fold-change (tipifarnib/LPS vs LPS) B2M (6 hr): −1.23 | Fold-change (tipifarnib/LPS vs LPS) C3AR1 (6 hr): −1.23 | Fold-change (tipifarnib/LPS vs LPS) CCL3 (6 hr): −1.07 | Fold-change (tipifarnib/LPS vs LPS) CCL4 (6 hr): 1.07 | Fold-change (tipifarnib/LPS vs LPS) CCND1 (6 hr): −1.15 | Fold-change (tipifarnib/LPS vs LPS) IER3 (6 hr): 1.15 | Fold-change (tipifarnib/LPS vs LPS) IFI16 (6 hr): −1.32 | Fold-change (tipifarnib/LPS vs LPS) IFIT1 (6 hr): −1.41 | Fold-change (tipifarnib/LPS vs LPS) IGFBP3 (6 hr): 1.00 | Fold-change (tipifarnib/LPS vs LPS) IL8 (6 hr): −1.15 | Fold-change (tipifarnib/LPS vs LPS) KCNK17 (6 hr): −1.32 | Fold-change (tipifarnib/LPS vs LPS) LGR7 (6 hr): −1.41 | Fold-change (tipifarnib/LPS vs LPS) MMP9 (6 hr): −1.41 | Fold-change (tipifarnib/LPS vs LPS) NEXN (6 hr): −1.41 | Fold-change (tipifarnib/LPS vs LPS) NFKB2 (6 hr): −1.07 | Fold-change (tipifarnib/LPS vs LPS) PTX3 (6 hr): −1.32 | Fold-change (tipifarnib/LPS vs LPS) S100A9 (6 hr): −1.07 | Fold-change (tipifarnib/LPS vs LPS) TIMP3 (6 hr): −1.23 | Fold-change (tipifarnib/LPS vs LPS) UBE2L6 (6 hr): −1.41 | Fold-change (tipifarnib/LPS vs LPS) ABCB8 (12 hr): −1.23 | Fold-change (tipifarnib/LPS vs LPS) CCL3 (12 hr): 1.23 | Fold-change (tipifarnib/LPS vs LPS) GNPNAT1 (12 hr): −1.41 | Fold-change (tipifarnib/LPS vs LPS) IER3 (12 hr): 1.00 | Fold-change (tipifarnib/LPS vs LPS) IFI16 (12 hr): −1.23 | Fold-change (tipifarnib/LPS vs LPS) IFIT1 (12 hr): −1.32 | Fold-change (tipifarnib/LPS vs LPS) IL1RN (12 hr): −1.15 | Fold-change (tipifarnib/LPS vs LPS) IL8 (12 hr): 1.32 | Fold-change (tipifarnib/LPS vs LPS) KCNK17 (12 hr): 1.00 | Fold-change (tipifarnib/LPS vs LPS) LAP3 (12 hr): −1.23 | Fold-change (tipifarnib/LPS vs LPS) LY6E (12 hr): 1.15 | Fold-change (tipifarnib/LPS vs LPS) MX1 (12 hr): 1.32 | Fold-change (tipifarnib/LPS vs LPS) MYD88 (12 hr): −1.23 | Fold-change (tipifarnib/LPS vs LPS) NEXN (12 hr): −1.15 | Fold-change (tipifarnib/LPS vs LPS) NFKB2 (12 hr): −1.32 | Fold-change (tipifarnib/LPS vs LPS) PTX3 (12 hr): −1.32 | Fold-change (tipifarnib/LPS vs LPS) STAT1 (12 hr): 1.00 | Fold-change (tipifarnib/LPS vs LPS) TAP1 (12 hr): −1.15 | Fold-change (tipifarnib/LPS vs LPS) TAP2 (12 hr): −1.32 | Fold-change (tipifarnib/LPS vs LPS) TIMP3 (12 hr): −1.15 | Fold-change (tipifarnib/LPS vs LPS) TRIM22 (12 hr): −1.07 | Fold-change (tipifarnib/LPS vs LPS) UBE2L6 (12 hr): −1.15 | Fold-change (tipifarnib/LPS vs LPS) ABCB8 (24 hr): −1.23 | Fold-change (tipifarnib/LPS vs LPS) B2M (24 hr): 1.15 | Fold-change (tipifarnib/LPS vs LPS) CCND1 (24 hr): −1.23 | Fold-change (tipifarnib/LPS vs LPS) IER3 (24 hr): 1.23 | Fold-change (tipifarnib/LPS vs LPS) IL1B (24 hr): −1.23 | Fold-change (tipifarnib/LPS vs LPS) IL8 (24 hr): −1.07 | Fold-change (tipifarnib/LPS vs LPS) LY6E (24 hr): −1.32 | Fold-change (tipifarnib/LPS vs LPS) MMP9 (24 hr): −1.41 | Fold-change (tipifarnib/LPS vs LPS) MX1 (24 hr): −1.32 | Fold-change (tipifarnib/LPS vs LPS) MYD88 (24 hr): −1.32 | Fold-change (tipifarnib/LPS vs LPS) TAP1 (24 hr): −1.23 | Fold-change (tipifarnib/LPS vs LPS) TAP2 (24 hr): −1.23 | Fold-change (tipifarnib/LPS vs LPS) TIMP3 (24 hr): 1.15 | Fold-change (tipifarnib/LPS vs LPS) UBE2L6 (24 hr): −1.41 | number of LPS-induced transcripts downregulated (out of 121 genes with at least […] induction by LPS at 2 time points, at least […] decrease at one or more time points): 34
